Source: patent US12285403B2, “A2-73 as a therapeutic for insomnia, anxiety and agitation” (Anavex Life Sciences Corp., priority 2016, dated 2025)
“Also recorded” adds a separate entry of the source.

Key:
Type in all cases: in vivo, human
[1] = test system: mild-to-moderate Alzheimer's disease patients; assay: MMSE (Mini-Mental State Examination), Phase 2a study; details: over 31 weeks; for MMSE scores: oral daily 10 mg to 50 mg, FIG. 1
Source text: Although the present invention calls for methods of treating insomnia, some primary sleep disorders, such as circadian rhythm disorders, advanced sleep phase disorder also termed sleep onset insomnia, mid-nocturnal insomnia, early morning insomnia, hyper insomnia, trouble staying asleep, jet lag, narcolepsy, non-24-hour sleep-wake syndrome, include insomnia as a component of the disorder. Thus, the term “insomnia” should be understood to also include the insomnia component of these disorders. • Aβ—Amyloid beta is abbreviated as Aβ. • AD—Alzheimer's disease is abbreviated as AD. • ADCS-ADL—Alzheimer's Disease Cooperative Study Activities of Daily Living Inventory is abbreviated as ADCS-ADL. • Cogstate tasks—Cogstate tasks refers to Cogstate cognitive tests (Cogstate Alzheimer's Battery) using visual and verbal stimuli to ensure assessment. These tests assess cognitive function in adults with mild cognitive impairment and clinically-diagnosed Alzheimer's disease. The test is culture-neutral and not limited by a subject or participant's level of education. A Cogstate battery comprises a number of individual tests—each designed to test a specific area of cognition. When a number of these individual tests are put together to form a test battery, a more complete picture of a person's cognitive state can be defined. • DPZ—Donepezil is abbreviated as DPZ. • EEG/ERP—EEG/ERP is a reference to ERP measured via EEG. • ERP—Event-related potential is abbreviated as ERP. • HAM-D—Hamilton Depression Rating Scale is abbreviated as HAM-D. • MCI—Mild cognitive impairment is abbreviated as MCI. • MMSE—MMSE refers to the Mini-Mental State Examination (MMSE) or Folstein test. This test is a 30-point questionnaire that is used extensively in clinical and research settings to measure cognitive impairment. • SWS—Slow-wave sleep is abbreviated as SWS. • WASO.—Waking after sleep onset is abbreviated WASO.
Efficacy data is presented through 31 week from the randomized (into different treatment regimens) open-label study with ANAVEX 2-73 oral daily dosing ranging from 10 mg to 50 mg. […]

[2] = Systolic blood pressure monitored over the first 25 days of dosing in AD subjects
Method: An additional benefit of the therapeutic regimen disclosed herein is the beneficial control of systolic blood pressure in AD subjects taking daily oral dosages of A2-73 of from about 10 mg to about 50 mg. Systolic blood pressure was monitored over the first 25 days of dosing. A1-41 and A19-144 are similarly useful therapeutics.

[3] = Safety, tolerability and patient retention, Phase 2a study
Source text: The safety and efficacy of A2-73 has been studied Phase 2a Study in mild-moderate Alzheimer's disease patients. […] Without being bound by any particular theory, it is believed that A2-73 activates the stress-reducing and survival protein, the Sigma-1 receptor. The data of Table 1 is from an open-label, clinical trial, performed on a group of 30 mild-to-moderate AD patients (MMSE range 16-23, 40% female) on donepezil treatment, with […] 2-73. […]

[4] = test system: mild-to-moderate Alzheimer's disease patients; assay: Cogstate test battery, Phase 2a study; details: over 31 weeks of treatment; FIG. 8; listed as ANAVEX 2-73, hydrochloride
Source text: Although the present invention calls for methods of treating insomnia, some primary sleep disorders, such as circadian rhythm disorders, advanced sleep phase disorder also termed sleep onset insomnia, mid-nocturnal insomnia, early morning insomnia, hyper insomnia, trouble staying asleep, jet lag, narcolepsy, non-24-hour sleep-wake syndrome, include insomnia as a component of the disorder. Thus, the term “insomnia” should be understood to also include the insomnia component of these disorders. • Aβ—Amyloid beta is abbreviated as Aβ. • AD—Alzheimer's disease is abbreviated as AD. • ADCS-ADL—Alzheimer's Disease Cooperative Study Activities of Daily Living Inventory is abbreviated as ADCS-ADL. • Cogstate tasks—Cogstate tasks refers to Cogstate cognitive tests (Cogstate Alzheimer's Battery) using visual and verbal stimuli to ensure assessment. […] When a number of these individual tests are put together to form a test battery, a more complete picture of a person's cognitive state can be defined. • DPZ—Donepezil is abbreviated as DPZ. • EEG/ERP—EEG/ERP is a reference to ERP measured via EEG. • ERP—Event-related potential is abbreviated as ERP. • HAM-D—Hamilton Depression Rating Scale is abbreviated as HAM-D. • MCI—Mild cognitive impairment is abbreviated as MCI. • MMSE—MMSE refers to the Mini-Mental State Examination (MMSE) or Folstein test. […]

## CN(C)CC1CCOC1(c1ccccc1)c1ccccc1.Cl (stereo not drawn) [A2-73, tetrahydro-N,N-dimethyl-2,2-diphenyl-3-furanmethanamine hydrochloride]
[1]; hydrochloride
  MMSE scores: maintained at the same level
[1]; listed as ANAVEX 2-73, hydrochloride
  MMSE scores: preserves average MMSE and ADCS-ADL scores
[1]; exploratory analysis, FIG. 5
  MMSE score, ANAVEX 2-73 alone vs ANAVEX 2-73 with DPZ (donepezil): no notable difference
[2]; Hypertension Stage 1: 140-159 mm Hg
  Change in mean systolic BP, baseline to Day 25: −16 mm Hg
[2]; Hypertension Stage 1: 140-159 mm Hg, baseline 145 ± 3
  Day 25 Mean systolic BP ±SD: 129 ± 12 mm Hg
[2]; Hypertension Stage 2: 160-179 mm Hg
  Change in mean systolic BP, baseline to Day 25: −22 mm Hg
[2]; Hypertension Stage 2: 160-179 mm Hg, baseline 170 ± 8
  Day 25 Mean systolic BP ±SD: 148 ± 19 mm Hg
[2]; Hypertensive crisis >180 mm Hg
  Change in mean systolic BP, baseline to Day 25: −27 mm Hg
[2]; Hypertensive crisis >180 mm Hg, baseline 185 ± 0
  Day 25 Mean systolic BP ±SD: 159 ± 43 mm Hg
[2]; Pre Hypertension 120-139 mm Hg
  Change in mean systolic BP, baseline to Day 25: −9 mm Hg
[2]; Pre Hypertension 120-139 mm Hg, baseline 131 ± 6
  Day 25 Mean systolic BP ±SD: 122 ± 15 mm Hg
[2]; baseline classification <120 mm Hg
  Change in mean systolic BP, baseline to Day 25: 8 mm Hg
[2]; baseline classification <120 mm Hg, baseline 115 ± 2, oral daily 10-50 mg
  Day 25 Mean systolic BP ±SD: 123 ± 11 mm Hg
[2]; first 25 days of dosing
  Systolic blood pressure in subjects with high-normal systolic blood pressure: rose
[2]; first 25 days of dosing, greater reduction for increasingly hypertensive subjects
  Systolic blood pressure in hypertensive subjects: significantly reduced
[3]; 30 mg
  Adverse event: headache: 10%
  Adverse event: mild dizziness: 5%
  Changes in clinical labs and EKGs: no significant changes
  Tolerability: well tolerated
[3]; 32 patients with mild-to-moderate AD, Phase 2a
  Safety and tolerability/risk profile: favorable safety and tolerability/risk profile
[4]
  Cogstate tasks: psychomotor function, attention and working memory: sustained benefit; also recorded: benefits over baseline
